Data published in BindingDB's records for patent US20250195508 (University of Central Florida Research Foundation, 2025).

Each compound was assayed against Ephrin type-A receptor 2 (Homo sapiens, UniProt P29317) (assay: In Vitro Biochemical Kinase Assay).
Source text: In vitro biochemical kinase assays were done using recombinant human EPHA2. compounds were subjected to in vitro biochemical kinase assays done using recombinant human ephrin type-A receptor 2 (EPHA2) (expressed in insect cells) in a Z′-LYTE FRET-based kinase assay.

Sequence of Ephrin type-A receptor 2 (P29317 whole entry): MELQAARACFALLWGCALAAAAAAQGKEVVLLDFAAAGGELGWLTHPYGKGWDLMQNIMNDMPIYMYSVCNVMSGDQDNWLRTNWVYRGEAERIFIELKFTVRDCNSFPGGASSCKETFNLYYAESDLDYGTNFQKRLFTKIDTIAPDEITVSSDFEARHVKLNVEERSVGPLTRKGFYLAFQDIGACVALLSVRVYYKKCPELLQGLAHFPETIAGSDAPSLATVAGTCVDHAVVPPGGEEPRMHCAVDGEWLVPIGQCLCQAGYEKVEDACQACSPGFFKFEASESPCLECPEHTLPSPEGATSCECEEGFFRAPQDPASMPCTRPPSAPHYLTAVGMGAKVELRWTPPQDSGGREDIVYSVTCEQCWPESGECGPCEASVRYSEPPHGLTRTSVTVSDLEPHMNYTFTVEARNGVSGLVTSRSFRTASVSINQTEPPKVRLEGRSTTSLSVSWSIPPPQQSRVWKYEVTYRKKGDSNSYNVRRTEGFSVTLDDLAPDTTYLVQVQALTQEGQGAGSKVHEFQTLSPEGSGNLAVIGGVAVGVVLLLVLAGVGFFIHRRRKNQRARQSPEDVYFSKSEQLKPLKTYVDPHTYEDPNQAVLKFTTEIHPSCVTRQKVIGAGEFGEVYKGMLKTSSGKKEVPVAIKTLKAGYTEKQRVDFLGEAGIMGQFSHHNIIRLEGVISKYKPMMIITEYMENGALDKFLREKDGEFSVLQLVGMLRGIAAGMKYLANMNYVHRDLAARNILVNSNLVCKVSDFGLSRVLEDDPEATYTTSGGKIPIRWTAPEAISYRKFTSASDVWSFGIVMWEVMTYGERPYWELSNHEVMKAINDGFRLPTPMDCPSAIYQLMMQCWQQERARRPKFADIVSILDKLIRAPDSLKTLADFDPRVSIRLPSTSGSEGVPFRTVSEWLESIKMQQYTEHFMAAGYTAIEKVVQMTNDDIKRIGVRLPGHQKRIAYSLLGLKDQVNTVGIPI

IC50, > 10 µM:
CCN1CCN(Cc2ccc(NC(=O)c3cc(NC(=O)c4cncc(-c5cccs5)c4)cc(OC)c3)cc2C(F)(F)F)CC1 [MLS000911581]
CCN1CCN(Cc2ccc(NC(=O)c3cncc(NC(=O)c4cncc(-c5cccs5)c4)c3)cc2C(F)(F)F)CC1 [US20250195508, Name TL5-139]
CCN1CCN(Cc2ccc(NC(=O)c3ccnc(NC(=O)c4cncc(-c5cccs5)c4)c3)cc2C(F)(F)F)CC1 [US20250195508, Name TL5-145]
